Experimental data reported in ChEMBL document CHEMBL1201862, “PubChem BioAssay data set” (2004).
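Assay format: 96-well plates, 48-hour exposure. GI50: concentration for 50% inhibition of growth.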 Active and inactive are the calls of the source. Rule as the data show it: active = GI50 up to about 1.1 µM and inactive = higher.

Legend:
Experiment in all cases: NCI anticancer screen, dose series, 48 h
786-0 = system: 786-0
A498 = system: A498
A549 = system: A549
ACHN = system: ACHN
CAKI-1 = system: CAKI-1
CCRF-CEM = system: CCRF-CEM
DLD-1 = system: DLD-1
DMS-114 = system: DMS-114
DMS-273 = system: DMS-273
EKVX = system: EKVX
HCC 2998 = system: HCC 2998
HCT-116 = system: HCT-116
HCT-15 = system: HCT-15
HL-60 = system: HL-60
HOP-62 = system: HOP-62
HT-29 = system: HT-29
IGROV-1 = system: IGROV-1
K562 = system: K562
KM-20L2 = system: KM-20L2
KM12 = system: KM12
LXFL 529 = system: LXFL 529
M14 = system: M14
M19-MEL = system: M19-MEL
MOLT-4 = system: MOLT-4
Malme-3M = system: Malme-3M
NCI-H226 = system: NCI-H226
NCI-H23 = system: NCI-H23
NCI-H460 = system: NCI-H460
OVCAR-3 = system: OVCAR-3
OVCAR-4 = system: OVCAR-4
OVCAR-5 = system: OVCAR-5
OVCAR-8 = system: OVCAR-8
RPMI-8226 = system: RPMI-8226
RXF 393 = system: RXF 393
RXF 631 = system: RXF 631
SF-295 = system: SF-295
SF-539 = system: SF-539
SK-MEL-28 = system: SK-MEL-28
SK-MEL-2 = system: SK-MEL-2
SK-MEL-5 = system: SK-MEL-5
SK-OV-3 = system: SK-OV-3
SNB-75 = system: SNB-75
SNB-78 = system: SNB-78
SW-620 = system: SW-620
TK-10 = system: TK-10
U-251 = system: U-251
UACC-257 = system: UACC-257
UACC-62 = system: UACC-62
UO-31 = system: UO-31
XF498 = system: XF498
COLO 205 = system: COLO 205
HOP-18 = system: HOP-18
HOP-92 = system: HOP-92
LOX IMVI = system: LOX IMVI
NCI-H522 = system: NCI-H522
SF-268 = system: SF-268
SN12C = system: SN12C
SNB-19 = system: SNB-19
SR = system: SR

For O=C1CC(c2c(-c3ccccc3)[nH]c3ccccc23)C(=O)N1c1ccccc1 (centres undefined), the GI50 (786-0) was > 100 µM (inactive), the GI50 (A498) was > 100 µM (inactive) and the GI50 (A549) was 41.8 µM (inactive). For the same compound, the GI50 (ACHN) was 40.5 µM (inactive), the GI50 (CAKI-1) was 59.4 µM (inactive) and the GI50 (CCRF-CEM) was 63.7 µM (inactive). For the same compound, the GI50 (DLD-1) was 70.5 µM (inactive), the GI50 (DMS-114) was 49.5 µM (inactive) and the GI50 (DMS-273) was > 100 µM (inactive). The GI50 (EKVX) was > 100 µM (inactive), the GI50 (HCC 2998) was > 100 µM (inactive) and the GI50 (HCT-116) was 41.9 µM (inactive). For the same compound, the GI50 (HCT-15) was 61.8 µM, the GI50 (HL-60) was 44.6 µM (inactive) and the GI50 (HOP-62) was 25.6 µM (inactive). For the same compound, the GI50 (HT-29) was > 100 µM (inactive), the GI50 (IGROV-1) was > 100 µM (inactive) and the GI50 (K562) was 57.1 µM (inactive). The GI50 (KM-20L2) was 95.1 µM (inactive), the GI50 (KM12) was 44.4 µM (inactive) and the GI50 (LXFL 529) was 57.1 µM (inactive). The GI50 (M14) was > 100 µM (inactive), the GI50 (M19-MEL) was > 100 µM (inactive) and the GI50 (MOLT-4) was 61.5 µM (inactive). The GI50 (Malme-3M) was > 100 µM (inactive), the GI50 (NCI-H226) was > 100 µM (inactive) and the GI50 (NCI-H23) was 78.7 µM (inactive). The GI50 (NCI-H460) was 56.2 µM (inactive), the GI50 (OVCAR-3) was 61.5 µM (inactive) and the GI50 (OVCAR-4) was 68.9 µM (inactive). The GI50 (OVCAR-5) was > 100 µM (inactive), the GI50 (OVCAR-8) was > 100 µM (inactive) and the GI50 (RPMI-8226) was 37.6 µM (inactive). The GI50 (RXF 393) was 27.4 µM (inactive), the GI50 (RXF 631) was 56.8 µM (inactive) and the GI50 (SF-295) was 13.5 µM (inactive). For the same compound, the GI50 (SF-539) was > 100 µM (inactive), the GI50 (SK-MEL-28) was > 100 µM (inactive) and the GI50 (SK-MEL-2) was > 100 µM (inactive). For the same compound, the GI50 (SK-MEL-5) was 56.8 µM (inactive), the GI50 (SK-OV-3) was > 100 µM (inactive) and the GI50 (SNB-75) was > 100 µM (inactive). For the same compound, the GI50 (SNB-78) was > 100 µM (inactive), the GI50 (SW-620) was > 100 µM (inactive) and the GI50 (TK-10) was > 100 µM (inactive). The GI50 (U-251) was 88.9 µM (inactive), the GI50 (UACC-257) was > 100 µM (inactive) and the GI50 (UACC-62) was 54.2 µM (inactive). The GI50 (UO-31) was 25.4 µM (inactive) and the GI50 (XF498) was > 100 µM (inactive).

For O=C1OC(=O)c2c1nc1ccccc1c2-c1ccccc1, the GI50 (786-0) was > 100 µM (inactive), the GI50 (A498) was > 100 µM (inactive) and the GI50 (A549) was > 100 µM (inactive). For the same compound, the GI50 (ACHN) was > 100 µM (inactive), the GI50 (CAKI-1) was > 100 µM (inactive) and the GI50 (CCRF-CEM) was > 100 µM (inactive). The GI50 (COLO 205) was > 100 µM (inactive), the GI50 (DLD-1) was > 100 µM (inactive) and the GI50 (DMS-114) was > 100 µM (inactive). For the same compound, the GI50 (DMS-273) was > 100 µM (inactive), the GI50 (HCC 2998) was > 100 µM (inactive) and the GI50 (HCT-116) was > 100 µM (inactive). The GI50 (HCT-15) was greater than 100 µM, the GI50 (HL-60) was > 100 µM (inactive) and the GI50 (HOP-18) was > 100 µM (inactive). For the same compound, the GI50 (HOP-62) was > 100 µM (inactive), the GI50 (HOP-92) was > 100 µM (inactive) and the GI50 (HT-29) was > 100 µM (inactive). For the same compound, the GI50 (IGROV-1) was > 100 µM (inactive), the GI50 (K562) was > 100 µM (inactive) and the GI50 (KM-20L2) was > 100 µM (inactive). The GI50 (KM12) was > 100 µM (inactive), the GI50 (LOX IMVI) was > 100 µM (inactive) and the GI50 (LXFL 529) was > 100 µM (inactive). For the same compound, the GI50 (M14) was > 100 µM (inactive), the GI50 (M19-MEL) was > 100 µM (inactive) and the GI50 (MOLT-4) was > 100 µM (inactive). The GI50 (Malme-3M) was > 100 µM (inactive), the GI50 (NCI-H226) was > 100 µM (inactive) and the GI50 (NCI-H460) was > 100 µM (inactive). The GI50 (NCI-H522) was > 100 µM (inactive), the GI50 (OVCAR-4) was > 100 µM (inactive) and the GI50 (OVCAR-5) was > 100 µM (inactive). The GI50 (OVCAR-8) was > 100 µM (inactive), the GI50 (RPMI-8226) was > 100 µM (inactive) and the GI50 (RXF 393) was > 100 µM (inactive). The GI50 (RXF 631) was > 100 µM (inactive), the GI50 (SF-268) was > 100 µM (inactive) and the GI50 (SF-295) was > 100 µM (inactive). For the same compound, the GI50 (SF-539) was > 100 µM (inactive), the GI50 (SK-MEL-2) was > 100 µM (inactive) and the GI50 (SK-MEL-5) was > 100 µM (inactive). For the same compound, the GI50 (SK-OV-3) was > 100 µM (inactive), the GI50 (SN12C) was > 100 µM (inactive) and the GI50 (SNB-19) was > 100 µM (inactive). The GI50 (SNB-75) was > 100 µM (inactive), the GI50 (SNB-78) was > 100 µM (inactive) and the GI50 (SR) was > 100 µM (inactive). The GI50 (SW-620) was > 100 µM (inactive), the GI50 (TK-10) was > 100 µM (inactive) and the GI50 (U-251) was > 100 µM (inactive). For the same compound, the GI50 (UACC-257) was > 100 µM (inactive), the GI50 (UACC-62) was > 100 µM (inactive) and the GI50 (UO-31) was > 100 µM (inactive).

With CCCn1c(SCC)c2ccccc2c1-c1nc(F)nc(F)n1 the GI50 (786-0) was > 100 µM (inactive), the GI50 (A498) was > 100 µM (inactive) and the GI50 (A549) was > 100 µM (inactive). For the same compound, the GI50 (ACHN) was > 100 µM (inactive), the GI50 (CAKI-1) was > 100 µM (inactive) and the GI50 (CCRF-CEM) was > 100 µM (inactive). For the same compound, the GI50 (COLO 205) was > 100 µM (inactive), the GI50 (DMS-114) was > 100 µM (inactive) and the GI50 (DMS-273) was > 100 µM (inactive). The GI50 (EKVX) was > 100 µM (inactive), the GI50 (HCC 2998) was > 100 µM (inactive) and the GI50 (HCT-116) was > 100 µM (inactive). For the same compound, the GI50 (HCT-15) was greater than 100 µM, the GI50 (HL-60) was > 100 µM (inactive) and the GI50 (HOP-62) was > 100 µM (inactive). For the same compound, the GI50 (HOP-92) was > 100 µM (inactive), the GI50 (HT-29) was > 100 µM (inactive) and the GI50 (K562) was > 100 µM (inactive). For the same compound, the GI50 (KM-20L2) was > 100 µM (inactive), the GI50 (KM12) was > 100 µM (inactive) and the GI50 (LOX IMVI) was > 100 µM (inactive). The GI50 (LXFL 529) was > 100 µM (inactive), the GI50 (M14) was > 100 µM (inactive) and the GI50 (M19-MEL) was > 100 µM (inactive). For the same compound, the GI50 (MOLT-4) was > 100 µM (inactive), the GI50 (Malme-3M) was > 100 µM (inactive) and the GI50 (NCI-H226) was > 100 µM (inactive). For the same compound, the GI50 (NCI-H23) was > 100 µM (inactive), the GI50 (NCI-H460) was > 100 µM (inactive) and the GI50 (NCI-H522) was > 100 µM (inactive). The GI50 (OVCAR-3) was > 100 µM (inactive), the GI50 (OVCAR-4) was > 100 µM (inactive) and the GI50 (OVCAR-5) was > 100 µM (inactive). For the same compound, the GI50 (RPMI-8226) was > 100 µM (inactive), the GI50 (RXF 393) was > 100 µM (inactive) and the GI50 (RXF 631) was > 100 µM (inactive). For the same compound, the GI50 (SF-268) was > 100 µM (inactive), the GI50 (SF-295) was > 100 µM (inactive) and the GI50 (SF-539) was > 100 µM (inactive). The GI50 (SK-MEL-28) was > 100 µM (inactive), the GI50 (SK-MEL-2) was > 100 µM (inactive) and the GI50 (SN12C) was > 100 µM (inactive). For the same compound, the GI50 (SNB-19) was > 100 µM (inactive), the GI50 (SNB-78) was > 100 µM (inactive) and the GI50 (SR) was > 100 µM (inactive). For the same compound, the GI50 (SW-620) was > 100 µM (inactive), the GI50 (TK-10) was > 100 µM (inactive) and the GI50 (U-251) was > 100 µM (inactive). For the same compound, the GI50 (UO-31) was > 100 µM (inactive) and the GI50 (XF498) was > 100 µM (inactive).
